Source: PMC6609544 (British Journal of Pharmacology, 2019)
Positions count from the first letter of the chain named. pIC50: −log10 of the molar value.

Experiments:
Kv12.1(H462Y) = biological target: T1, Kv12.1(H462Y) (Homo sapiens, UniProt Q96L42, H462Y); test: whole-cell patch clamp in transfected CHO cells; format: cell-based
T1 sequence (Q96L42 1-1107 H462Y): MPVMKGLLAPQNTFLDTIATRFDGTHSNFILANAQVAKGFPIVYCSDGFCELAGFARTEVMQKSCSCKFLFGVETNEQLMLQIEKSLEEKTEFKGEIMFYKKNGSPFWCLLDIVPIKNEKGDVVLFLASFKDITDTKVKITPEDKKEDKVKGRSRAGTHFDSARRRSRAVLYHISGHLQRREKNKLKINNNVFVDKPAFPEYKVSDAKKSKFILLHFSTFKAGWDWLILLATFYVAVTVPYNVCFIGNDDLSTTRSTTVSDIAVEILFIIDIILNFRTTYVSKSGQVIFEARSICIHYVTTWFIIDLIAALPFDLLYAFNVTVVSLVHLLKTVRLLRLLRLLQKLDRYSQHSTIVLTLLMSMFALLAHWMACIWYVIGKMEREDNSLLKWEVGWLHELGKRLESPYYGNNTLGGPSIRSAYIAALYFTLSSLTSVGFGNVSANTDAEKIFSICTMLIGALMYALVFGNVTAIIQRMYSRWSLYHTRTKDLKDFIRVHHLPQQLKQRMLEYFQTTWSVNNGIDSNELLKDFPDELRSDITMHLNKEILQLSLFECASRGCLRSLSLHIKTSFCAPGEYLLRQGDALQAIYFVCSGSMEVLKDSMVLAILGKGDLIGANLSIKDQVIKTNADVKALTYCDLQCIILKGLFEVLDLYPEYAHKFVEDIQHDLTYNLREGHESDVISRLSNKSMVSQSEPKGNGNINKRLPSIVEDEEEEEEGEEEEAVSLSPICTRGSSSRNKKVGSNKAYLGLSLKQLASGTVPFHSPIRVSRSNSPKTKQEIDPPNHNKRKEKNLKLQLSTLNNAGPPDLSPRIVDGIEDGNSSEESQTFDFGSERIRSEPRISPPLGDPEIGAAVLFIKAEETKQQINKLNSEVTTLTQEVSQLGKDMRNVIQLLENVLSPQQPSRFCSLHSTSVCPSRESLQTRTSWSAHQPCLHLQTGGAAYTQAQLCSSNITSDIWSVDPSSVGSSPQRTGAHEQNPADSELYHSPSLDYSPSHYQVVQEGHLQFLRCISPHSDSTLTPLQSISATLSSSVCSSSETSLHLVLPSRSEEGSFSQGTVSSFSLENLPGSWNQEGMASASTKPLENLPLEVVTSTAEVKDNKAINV

Kv12.1 (Elk1) = biological target: T2, Kv12.1 (Elk1) (Homo sapiens, UniProt Q96L42); test: whole-cell patch clamp in transfected CHO cells; format: cell-based
T2 sequence (Q96L42 1-1107): T1 sequence (Q96L42 1-1107 H462Y) with Y462H

C=C[C@H]1C[N@@]2CC[C@H]1C[C@H]2[C@H](O)c1ccnc2ccc(OC)cc12 [quinine]
pIC50 (Kv12.1(H462Y)): 4.25
pIC50 (Kv12.1 (Elk1)): 3.01
